# Assay results published in ChEMBL document CHEMBL4118139, “Novel naphthyloxy derivatives - Potent histamine H3 receptor ligands. Synthesis and pharmacological evaluation” (Bioorg Med Chem, 2018).
# Calls of active or inactive are those of the source. The calls are words filed in the database; no cut-off is given here.
# Experiments:
# Histamine H3 receptor [1] = biological target: T1, Histamine H3 receptor (Homo sapiens, UniProt Q9Y5N1); assay: Displacement of [3H]N-alpha-methylhistamine from full length human H3 receptor expressed in HEK293 cell membranes after 90 mins
# T1 sequence (Q9Y5N1 whole entry): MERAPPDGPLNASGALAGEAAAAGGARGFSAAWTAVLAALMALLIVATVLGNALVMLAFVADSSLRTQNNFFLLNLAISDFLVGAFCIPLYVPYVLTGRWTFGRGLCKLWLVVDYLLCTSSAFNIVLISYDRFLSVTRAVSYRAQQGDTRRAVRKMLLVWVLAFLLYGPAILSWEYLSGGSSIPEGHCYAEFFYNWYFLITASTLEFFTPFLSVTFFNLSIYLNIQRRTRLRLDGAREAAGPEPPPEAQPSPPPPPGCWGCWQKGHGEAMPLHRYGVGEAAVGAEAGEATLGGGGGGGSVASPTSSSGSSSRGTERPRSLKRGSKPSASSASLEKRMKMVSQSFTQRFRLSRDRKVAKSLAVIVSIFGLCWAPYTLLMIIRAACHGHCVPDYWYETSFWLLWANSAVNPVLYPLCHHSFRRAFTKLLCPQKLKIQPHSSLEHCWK
# Salmonella typhimurium [2] = assay: Mutagenicity in Salmonella typhimurium TA100 assessed as increase in number of revertants at 10 uM after 90 mins by Ames test; format: toxicity, organism-based; details: salmonella enterica subsp. enterica serovar typhimurium, 1.5 h
# IMR-32 = assay: Cytotoxicity against human IMR32 cells assessed as reduction in cell viability after 72 hrs by MTS assay; format: cell-based; details: IMR-32, 72 h
# HepG2 = assay: Cytotoxicity against human HepG2 cells assessed as reduction in cell viability after 72 hrs by MTS assay; format: cell-based; details: HepG2, 72 h
# CYP3A4 = CYP3A4 (Homo sapiens, UniProt P08684); assay: Inhibition of CYP3A4 (unknown origin) at 25 uM by CYP3A4 P450-Glo assay; format: ADME
# Sequence of CYP3A4 (P08684 whole entry): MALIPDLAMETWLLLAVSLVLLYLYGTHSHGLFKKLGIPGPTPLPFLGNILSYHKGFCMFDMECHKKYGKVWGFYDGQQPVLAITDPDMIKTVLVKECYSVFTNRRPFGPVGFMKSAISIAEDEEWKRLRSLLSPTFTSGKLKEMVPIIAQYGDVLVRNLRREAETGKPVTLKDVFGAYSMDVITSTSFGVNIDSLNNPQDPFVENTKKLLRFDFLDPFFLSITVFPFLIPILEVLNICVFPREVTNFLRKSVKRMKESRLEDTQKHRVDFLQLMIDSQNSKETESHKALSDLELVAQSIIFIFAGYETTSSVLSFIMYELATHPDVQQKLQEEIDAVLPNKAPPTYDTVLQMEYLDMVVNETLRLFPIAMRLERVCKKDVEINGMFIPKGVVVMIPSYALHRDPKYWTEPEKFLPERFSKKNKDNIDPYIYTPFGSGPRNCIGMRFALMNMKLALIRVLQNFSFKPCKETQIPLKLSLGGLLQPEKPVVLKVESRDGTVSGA
# HEK293 = assay: Cytotoxicity against HEK293 cells assessed as reduction in cell viability after 72 hrs by MTS assay; format: cell-based; details: Homo sapiens, HEK293, 72 h
# Salmonella typhimurium [3] = assay: Mutagenicity in Salmonella typhimurium TA100 assessed as increase in number of revertants at 1 uM after 90 mins by Ames test; format: toxicity, organism-based; details: salmonella enterica subsp. enterica serovar typhimurium, 1.5 h
# Mus musculus [4] = assay: Anticonvulsant activity in ip dosed albino CF-1 mouse assessed as protection against 32 mA current-induced seizure after 1 hr by 6 Hz psychomotor test; format: functional; details: CF-1, ip
# Mus musculus [5] = assay: Anticonvulsant activity in ip dosed albino CF-1 mouse assessed as protection against 44 mA current-induced seizure after 0.25 hrs by 6 Hz psychomotor test; format: functional; details: CF-1, ip
# Mus musculus [6] = assay: Anticonvulsant activity in ip dosed albino CF-1 mouse assessed as protection against subcutaneous pentylenetetrazole-induced seizures measured after 1 hr; format: functional; details: CF-1, 1 h
# Mus musculus [7] = assay: (§1) Cognition enhancing effect in albino Swiss CD-1 mouse assessed as reversal of scopolamine-induced amnesia at 20 to 30 mg/kg, ip treated 30 mins prior to acquisition trial followed by scopolamine challenge immediately after acquisition trial by passive avoidance test (reference value: 39.31 +/- 4.01 secs); format: functional, organism-based
# [8] = biological target: D(1B) dopamine receptor (Homo sapiens) (UniProt P21918); assay: Displacement of [3H]-SCH23390 from human dopamine D5 receptor expressed in HEK293 cell membranes at 1 uM relative to fluphenazin
# Sequence of D(1B) dopamine receptor (Homo sapiens) (P21918 whole entry): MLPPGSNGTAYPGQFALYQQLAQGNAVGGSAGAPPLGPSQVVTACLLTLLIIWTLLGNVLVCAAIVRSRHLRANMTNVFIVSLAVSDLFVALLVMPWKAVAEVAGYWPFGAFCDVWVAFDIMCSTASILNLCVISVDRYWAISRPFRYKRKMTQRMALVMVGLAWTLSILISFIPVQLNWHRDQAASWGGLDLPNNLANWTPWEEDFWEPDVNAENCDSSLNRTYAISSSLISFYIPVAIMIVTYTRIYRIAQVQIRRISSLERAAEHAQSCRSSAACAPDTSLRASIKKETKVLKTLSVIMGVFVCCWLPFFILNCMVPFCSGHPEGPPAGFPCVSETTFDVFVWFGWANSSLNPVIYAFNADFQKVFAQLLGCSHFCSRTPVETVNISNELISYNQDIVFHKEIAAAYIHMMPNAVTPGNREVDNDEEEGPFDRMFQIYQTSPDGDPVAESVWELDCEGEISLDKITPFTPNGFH
# [9] = biological target: Histamine H4 receptor (Homo sapiens) (UniProt Q9H3N8); assay: Displacement of [3H]-Histamine from human histamine H4 receptor expressed in insect sf9 cell membranes at 1 uM relative to JNJ-7777120
# Sequence of Histamine H4 receptor (Homo sapiens) (Q9H3N8 whole entry): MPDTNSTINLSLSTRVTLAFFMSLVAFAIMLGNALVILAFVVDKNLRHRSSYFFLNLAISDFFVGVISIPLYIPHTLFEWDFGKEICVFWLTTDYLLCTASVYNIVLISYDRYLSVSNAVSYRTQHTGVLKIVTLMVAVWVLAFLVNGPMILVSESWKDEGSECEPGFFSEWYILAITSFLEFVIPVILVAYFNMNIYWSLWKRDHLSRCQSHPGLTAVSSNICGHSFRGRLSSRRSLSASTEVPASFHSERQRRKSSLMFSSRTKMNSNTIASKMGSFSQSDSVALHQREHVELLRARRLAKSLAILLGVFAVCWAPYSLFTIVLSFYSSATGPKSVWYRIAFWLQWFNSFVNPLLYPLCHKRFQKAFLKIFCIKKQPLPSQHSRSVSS
# Rattus norvegicus [10] = assay: In vivo antagonist activity at H3 receptor in RAMH-induced dipsogenic ip dosed Wistar (Krf:(WI) WU) rat model assessed as inhibition of RAMH-water intake administered 30 mins prior to RAMH induction; format: functional
# [11] = biological target: D(3) dopamine receptor (Homo sapiens) (UniProt P35462); assay: Displacement of [3H]-spiperone from human dopamine D3 receptor expressed in CHO cell membranes at 1 uM relative to haloperidol
# [12] = biological target: Histamine H1 receptor (Homo sapiens) (UniProt P35367); assay: Displacement of [3H]-pyrilamine from human histamine H1 receptor expressed in CHO cell membranes at 1 uM relative to chlorpheniramine
# Sequence of Histamine H1 receptor (Homo sapiens) (P35367 whole entry): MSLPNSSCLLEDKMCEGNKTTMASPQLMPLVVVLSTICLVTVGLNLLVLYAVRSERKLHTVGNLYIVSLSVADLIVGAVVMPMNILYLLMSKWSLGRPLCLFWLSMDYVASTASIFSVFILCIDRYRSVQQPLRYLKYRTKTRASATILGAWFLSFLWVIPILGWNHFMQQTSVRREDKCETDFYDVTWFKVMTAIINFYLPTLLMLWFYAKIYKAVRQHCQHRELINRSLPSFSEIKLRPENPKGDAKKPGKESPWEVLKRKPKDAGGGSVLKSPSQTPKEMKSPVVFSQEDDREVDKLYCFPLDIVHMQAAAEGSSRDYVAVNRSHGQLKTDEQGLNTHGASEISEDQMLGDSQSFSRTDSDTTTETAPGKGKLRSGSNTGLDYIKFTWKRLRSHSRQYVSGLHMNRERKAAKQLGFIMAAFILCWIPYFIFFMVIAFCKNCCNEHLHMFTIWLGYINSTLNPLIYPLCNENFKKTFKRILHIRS
# Mus musculus [13] = assay: as §1, with “amnesia by measuring latency time” for “amnesia”, “10” for “20 to 30”; format: functional
# [14] = biological target: Histamine H1 receptor (Cavia porcellus) (UniProt P31389); assay: Antagonist activity at histamine H1 receptor in guinea-pig ileum assessed as inhibition of histamine-induced contractions after 15 mins; format: functional
# Sequence of Histamine H1 receptor (Cavia porcellus) (P31389 whole entry): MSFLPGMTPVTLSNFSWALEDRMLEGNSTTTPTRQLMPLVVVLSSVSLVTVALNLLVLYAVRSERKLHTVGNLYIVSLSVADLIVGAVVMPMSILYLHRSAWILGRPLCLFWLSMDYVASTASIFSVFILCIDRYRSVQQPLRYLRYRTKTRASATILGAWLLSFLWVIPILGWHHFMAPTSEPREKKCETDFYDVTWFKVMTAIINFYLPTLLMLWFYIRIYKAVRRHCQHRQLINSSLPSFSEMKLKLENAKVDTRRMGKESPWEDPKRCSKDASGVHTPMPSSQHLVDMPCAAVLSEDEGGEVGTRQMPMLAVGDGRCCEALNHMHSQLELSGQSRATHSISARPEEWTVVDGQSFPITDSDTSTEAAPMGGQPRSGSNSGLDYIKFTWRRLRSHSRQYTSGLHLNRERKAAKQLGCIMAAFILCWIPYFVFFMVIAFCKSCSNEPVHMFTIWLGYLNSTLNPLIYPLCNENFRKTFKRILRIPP
# Mus musculus [15] = assay: Analgesic activity in ip dosed albino Swiss CD1 mouse assessed reduction in formalin-induced inflammatory pain by measuring reduction in time spent in licking pretreated prior to formalin injection measured at 15 to 30 mins post formalin injection; format: functional
# Histamine H1 receptor = Histamine H1 receptor (Cavia porcellus, UniProt P31389); assay: Antagonist potency at histamine H1 receptor in guinea-pig ileum assessed as inhibition of histamine-induced contractions at 0.3 to 3 uM after 15 mins; format: functional; details: read-out: pA2 (converted)
# Sequence of Histamine H1 receptor (P31389 whole entry): as above
# Mus musculus [16] = assay: Analgesic activity in ip dosed albino Swiss CD1 mouse assessed reduction in formalin-induced inflammatory pain by measuring reduction in time spent in licking treated prior to formalin injection measured at 0 to 5 mins post formalin injection; format: functional
# [17] = biological target: 5-hydroxytryptamine receptor 2A (Homo sapiens, UniProt P28223); assay: Displacement of [3H]-ketanserin from human 5-HT2A receptor expressed in CHO cell membranes after 1 hr
# [18] = biological target: D(1A) dopamine receptor (Homo sapiens) (UniProt P21728); assay: Displacement of [3H]-SCH23390 from human dopamine D1 receptor expressed in HEK293 cell membranes at 1 uM relative to fluphenazin
# Histamine H3 receptor [19] = biological target: T1, Histamine H3 receptor; assay: Antagonist activity at human H3 receptor expressed in HEK293 cells assessed as inhibition of RAMH-induced reduction of forskolin-stimulated cAMP accumulation after 30 mins by Ulight-based TR-FRET assay; format: functional, cell-based
# Mus musculus [20] = assay: Effect on spontaneous locomotor activity in ip dosed albino Swiss CD1 mouse assessed as inhibition of number of light beam crossings treated for 30 mins measured for next 30 mins in 10 min intervals; format: organism-based; details: in vivo, 0.5 h
# [21] = biological target: 5-hydroxytryptamine receptor 7 (Homo sapiens, UniProt P34969); assay: Displacement of [3H]-5-carboxyamidotryptamine from human 5-HT7 receptor expressed in HEK293 cell membranes after 1 hr
# Sequence of 5-hydroxytryptamine receptor 7 (P34969 whole entry): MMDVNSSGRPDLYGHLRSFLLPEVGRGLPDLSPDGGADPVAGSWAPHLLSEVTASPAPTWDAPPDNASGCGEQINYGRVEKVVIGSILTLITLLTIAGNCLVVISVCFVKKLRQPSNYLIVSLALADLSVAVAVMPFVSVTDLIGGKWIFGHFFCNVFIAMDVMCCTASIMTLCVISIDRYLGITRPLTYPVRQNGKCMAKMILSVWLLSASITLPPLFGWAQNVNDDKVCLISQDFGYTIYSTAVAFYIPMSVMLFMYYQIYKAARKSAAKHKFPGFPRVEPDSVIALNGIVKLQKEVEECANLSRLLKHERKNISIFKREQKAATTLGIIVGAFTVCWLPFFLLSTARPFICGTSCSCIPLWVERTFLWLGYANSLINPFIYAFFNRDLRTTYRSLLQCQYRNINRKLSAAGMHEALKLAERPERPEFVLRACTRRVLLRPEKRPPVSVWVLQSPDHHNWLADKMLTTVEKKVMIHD
# Mus musculus [22] = assay: as §1, with “amnesia by measuring latency time” for “amnesia”, “15” for “20 to 30”; format: functional
# [23] = biological target: 5-hydroxytryptamine receptor 6 (Homo sapiens, UniProt P50406); assay: Displacement of [3H]-LSD from human 5-HT6 receptor expressed in HEK293 cell membranes after 1 hr
# Sequence of 5-hydroxytryptamine receptor 6 (P50406 whole entry): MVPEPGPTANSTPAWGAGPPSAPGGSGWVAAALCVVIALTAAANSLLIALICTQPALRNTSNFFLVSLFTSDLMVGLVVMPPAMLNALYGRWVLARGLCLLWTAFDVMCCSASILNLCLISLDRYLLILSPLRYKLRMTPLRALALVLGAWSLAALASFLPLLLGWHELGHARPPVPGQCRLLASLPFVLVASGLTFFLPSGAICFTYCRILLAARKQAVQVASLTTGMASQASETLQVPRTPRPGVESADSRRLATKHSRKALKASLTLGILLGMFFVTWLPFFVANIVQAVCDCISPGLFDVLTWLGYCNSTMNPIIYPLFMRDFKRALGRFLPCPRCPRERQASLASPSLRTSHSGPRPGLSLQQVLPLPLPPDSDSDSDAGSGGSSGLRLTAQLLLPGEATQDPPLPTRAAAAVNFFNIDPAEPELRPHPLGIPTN
# [24] = biological target: D(2) dopamine receptor (Homo sapiens) (UniProt P14416); assay: Displacement of [3H]-spiperone from human dopamine D2 receptor expressed in CHO cell membranes at 1 uM relative to haloperidol
# Sequence of D(2) dopamine receptor (Homo sapiens) (P14416 whole entry): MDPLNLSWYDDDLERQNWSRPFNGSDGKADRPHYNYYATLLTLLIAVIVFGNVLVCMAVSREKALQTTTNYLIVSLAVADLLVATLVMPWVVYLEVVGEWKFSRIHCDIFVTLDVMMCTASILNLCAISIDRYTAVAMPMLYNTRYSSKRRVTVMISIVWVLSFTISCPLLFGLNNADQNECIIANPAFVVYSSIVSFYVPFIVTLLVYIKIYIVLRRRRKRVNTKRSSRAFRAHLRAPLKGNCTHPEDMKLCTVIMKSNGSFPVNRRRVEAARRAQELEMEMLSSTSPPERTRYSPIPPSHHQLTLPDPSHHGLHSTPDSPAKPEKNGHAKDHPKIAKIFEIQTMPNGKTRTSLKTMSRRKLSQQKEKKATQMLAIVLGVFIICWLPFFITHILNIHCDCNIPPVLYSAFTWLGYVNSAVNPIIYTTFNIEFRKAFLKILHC
# [25] = biological target: Muscarinic acetylcholine receptor M3 (Cavia porcellus) (UniProt Q8VH26); assay: Agonist activity at muscarinic M3 receptor in guinea-pig ileum assessed as induction of contractions at 1 to 3 uM after 15 mins; format: functional
# Sequence of Muscarinic acetylcholine receptor M3 (Cavia porcellus) (Q8VH26 1-587): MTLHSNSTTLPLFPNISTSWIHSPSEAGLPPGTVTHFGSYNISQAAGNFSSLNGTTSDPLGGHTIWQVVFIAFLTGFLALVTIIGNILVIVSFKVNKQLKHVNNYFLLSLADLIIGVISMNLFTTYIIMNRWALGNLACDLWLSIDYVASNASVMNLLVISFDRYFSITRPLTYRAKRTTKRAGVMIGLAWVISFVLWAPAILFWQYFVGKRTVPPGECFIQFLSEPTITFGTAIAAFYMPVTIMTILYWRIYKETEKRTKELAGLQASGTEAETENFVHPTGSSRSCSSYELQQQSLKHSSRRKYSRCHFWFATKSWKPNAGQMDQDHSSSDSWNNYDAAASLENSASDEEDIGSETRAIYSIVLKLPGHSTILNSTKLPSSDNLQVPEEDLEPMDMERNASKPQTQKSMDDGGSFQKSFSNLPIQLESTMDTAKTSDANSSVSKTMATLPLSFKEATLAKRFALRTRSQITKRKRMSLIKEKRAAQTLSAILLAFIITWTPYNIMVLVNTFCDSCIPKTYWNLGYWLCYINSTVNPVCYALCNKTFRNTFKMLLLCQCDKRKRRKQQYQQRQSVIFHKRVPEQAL
# [26] = biological target: Histamine H1 receptor (Cavia porcellus) (UniProt P31389); assay: Agonist activity at histamine H1 receptor in guinea-pig ileum assessed as induction of contractions at 1 to 3 uM after 15 mins; format: functional
# Mus musculus [27] = assay: Anticonvulsant activity in ip dosed albino CF-1 mouse assessed as protection against maximal electroshock-induced seizures after 1 hr; format: functional; details: CF-1, ip
# [28] = Therapeutic index, ratio of ip dosed albino CF-1 mouse TD50 to ip dosed albino CF-1 mouse ED50 for MES assay; format: toxicity, organism-based; details: in vivo, read-out: TI
# [29] = Neurotoxicity in ip dosed albino CF-1 mouse after 0.25 hrs by rotarod test; format: toxicity, organism-based; details: in vivo
# Rattus norvegicus [30] = assay: In vivo antagonist activity at H3 receptor in RAMH-induced dipsogenic Wistar (Krf:(WI) WU) rat model assessed as inhibition of RAMH-water intake at 1.25 mg/kg, ip administered 30 mins prior to RAMH induction; format: functional
# Mus musculus [31] = assay: as §1, with “amnesia by measuring latency time” for “amnesia”, “at” for “at 20 to”; format: functional
# Histamine H3 receptor [32] = biological target: T1, Histamine H3 receptor; assay: Displacement of […] from full length recombinant human H3 receptor expressed in HEK293 cell membranes after 90 mins by scintillation counting method
# Histamine H3 receptor [33] = biological target: Histamine H3 receptor (Rattus norvegicus, UniProt Q9QYN8); assay: Displacement of [3H]-(R)alpha-MeHA from rat brain H3 receptor
structure (smiles),measurement,setting,value
CC1CCCN(CCCCCOc2cccc3ccccc23)C1 (stereo unspecified),Ki,Histamine H3 receptor [1],32.8 nM
same,Activity,Salmonella typhimurium [2],Non-Toxic
same,IC50,IMR-32,32300 nM
same,IC50,HepG2,38600 nM
same,inhibition at 25 µM,CYP3A4,50%
same,IC50,HEK293,> 50000 nM
same,Activity,Salmonella typhimurium [3],Non-Toxic
CCCC(CCC)C(=O)O [VALPROIC ACID],ED50,Mus musculus [4],126 mg/kg
same,ED50,Mus musculus [5],310 mg/kg
same,ED50,Mus musculus [6],220 mg/kg
c1ccc2c(OCCCCCN3CCCCCC3)cccc2c1,Activity,Mus musculus [7],inactive
same,inhibition,[8],-10%
same,inhibition,[9],29%
same,ED50,Rattus norvegicus [10],3.68 mg/kg
same,inhibition,[11],17%
same,inhibition,[12],19%
same,Time,Mus musculus [13],83.61 s
same,inhibition,[14],Dose-dependent effect
same,ED50,Mus musculus [15],20.8 mg/kg
same,Kb,Histamine H1 receptor,708 nM
same,Ki,Histamine H3 receptor [1],21.9 nM
same,ED50,Mus musculus [16],30.6 mg/kg
same,Ki,[17],2610 nM
same,Activity,Salmonella typhimurium [2],Non-Toxic
same,IC50,IMR-32,35700 nM
same,inhibition,[18],14%
same,IC50,Histamine H3 receptor [19],312 nM
same,inhibition,Histamine H3 receptor [19],Dose-dependent effect
same,IC50,HepG2,25300 nM
same,ED50,Mus musculus [20],20.47 mg/kg
same,Ki,[21],2800 nM
same,Time,Mus musculus [22],91.47 s
same,inhibition at 25 µM,CYP3A4,50%
same,IC50,HEK293,> 50000 nM
same,Activity,Salmonella typhimurium [3],Non-Toxic
same,Ki,[23],1840 nM
same,inhibition,[24],12%
same,Activity,[25],inactive
same,Activity,[26],inactive
c1ccc2cc(OCCCCCCN3CCCCCC3)ccc2c1,Ki,Histamine H3 receptor [1],69.3 nM
CC1CCN(CCCCCCOc2ccc3ccccc3c2)CC1,Ki,Histamine H3 receptor [1],92.1 nM
Nc1nnc(-c2cccc(Cl)c2Cl)c(N)n1 [LAMOTRIGINE],ED50,Mus musculus [27],7.47 mg/kg
same,selectivity ratio,[28],4
same,ED50,Mus musculus [4],> 60 mg/kg
same,TD50 at 0.25 h,[29],30 mg/kg
same,ED50,Mus musculus [5],> 60 mg/kg
same,ED50,Mus musculus [6],> 40 mg/kg
CC1CCN(CCCCCOc2cccc3ccccc23)CC1,Ki,Histamine H3 receptor [1],43.3 nM
c1ccc2cc(OCCCCCN3CCCCC3)ccc2c1,Ki,Histamine H3 receptor [1],53.5 nM
c1ccc2cc(OCCCCCN3CCCCCC3)ccc2c1,Ki,Histamine H3 receptor [1],57.3 nM
CC(=O)Oc1ccccc1C(=O)O [ASPIRIN],ED50,Mus musculus [15],25.2 mg/kg
Clc1ccc(CCCOCCCN2CCCCC2)cc1 [PITOLISANT],inhibition in vivo at 1.25 mg/kg,Rattus norvegicus [30],87.4%
c1ccc2c(OCCCCCCN3CCCCC3)cccc2c1,Ki,Histamine H3 receptor [1],52.9 nM
CC1CCCN(CCCCCOc2ccc3ccccc3c2)C1 (stereo unspecified),Ki,Histamine H3 receptor [1],42.3 nM
CC1CCCN(CCCCCCOc2ccc3ccccc3c2)C1 (stereo unspecified),Ki,Histamine H3 receptor [1],55.9 nM
c1ccc2c(OCCCCCCN3CCCCCC3)cccc2c1,ED50,Mus musculus [15],18.1 mg/kg
same,Ki,Histamine H3 receptor [1],69.3 nM
same,Time,Mus musculus [31],68.64 s
same,ED50,Mus musculus [16],28.3 mg/kg
same,ED50,Mus musculus [20],21.66 mg/kg
same,Time,Mus musculus [22],87.77 s
same,Ki,Histamine H3 receptor [32],69 nM
S=C(NC1CCCCC1)N1CCC(c2cnc[nH]2)CC1 [THIOPERAMIDE],Ki,Histamine H3 receptor [33],2.1 nM
COc1cccc2c1C(=O)c1c(O)c3c(c(O)c1C2=O)C[C@@](O)(C(=O)CO)C[C@@H]3O[C@H]1C[C@H](N)[C@H](O)[C@H](C)O1 [DOXORUBICIN],IC50,IMR-32,50 nM
same,IC50,HepG2,550 nM
same,IC50,HEK293,360 nM
CN1CC[C@]23c4c5ccc(O)c4O[C@H]2[C@@H](O)C=C[C@H]3[C@H]1C5 [MORPHINE],ED50,Mus musculus [16],2.38 mg/kg
CC1CCN(CCCCCOc2ccc3ccccc3c2)CC1,Ki,Histamine H3 receptor [1],95 nM
CC1CCN(CCCCCCOc2cccc3ccccc23)CC1,Ki,Histamine H3 receptor [1],126 nM
CC1CCCN(CCCCCCOc2cccc3ccccc23)C1 (stereo unspecified),Ki,Histamine H3 receptor [1],47.6 nM
c1ccc2cc(OCCCCCCN3CCCCC3)ccc2c1,Ki,Histamine H3 receptor [1],61.8 nM
